These results are taken from ChEMBL document CHEMBL1201862, “PubChem BioAssay data set” (2004).

Some test systems named below: 786-0; A549; CCRF-CEM; DU-145; HCT-116; HOP-92; Hs-578T; IGROV-1; M14; MDA-MB-435; MOLT-4; OVCAR-3; OVCAR-8; PC-3; SF-268; SK-MEL-5; SNB-75; T47D; TK-10; UO-31.
Holding throughout (experiment): inhibition of tumour cell growth, NCI panel, 48 h

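These data come from cells grown in 96-well plates and exposed to compound for 48 hours at five concentrations. Abbreviation: GI50, concentration required for 50% inhibition of growth.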 Calls of active or inactive are those of the source. Cut-off read from the data, not from the text of the source: active = GI50 up to about 1.1 µM and inactive = higher. Where only a bound is given, the exact number is not on record here.

For the compound `Cc1ccc(C(=O)Nc2ccc(CP(=O)(O)O)cc2CP(=O)(O)O)cc1N`, the GI50 with 786-0, in the experiment on A549, with CCRF-CEM, with DU-145, in the experiment on HCT-116 and with HOP-92 was > 100 µM (inactive) each time. The GI50 in the experiment on Hs-578T, in the experiment with IGROV-1, in the experiment on M14, with MDA-MB-435, in the experiment on MOLT-4 and with OVCAR-3 was > 100 µM (inactive) in each case. Also, the GI50 with OVCAR-8, with PC-3, in the experiment on SF-268, in the experiment with SK-MEL-5, in the experiment with SNB-75 and with T47D was > 100 µM (inactive) each time. The GI50 in the experiment with TK-10 and in the experiment on UO-31 was > 100 µM (inactive) each time.
As to `CCOc1ccccc1/N=N/C1C(=O)N(C(=O)CC(=O)Nc2ccccc2C)N=C1C` (stereo not given), the GI50 with 786-0 was 46.9 µM (inactive); with A549, 89.7 µM (inactive); in the experiment on CCRF-CEM it was > 100 µM (inactive); in the experiment with DU-145, 79.3 µM (inactive); in the experiment on HCT-116, 44.4 µM (inactive); in the experiment on HOP-92, 17.1 µM (inactive). Besides, the GI50 with Hs-578T was 6.55 µM (inactive); with IGROV-1, 45 µM (inactive); in the experiment with M14, > 100 µM (inactive); with MDA-MB-435 it was > 100 µM (inactive); in the experiment with MOLT-4 it was > 100 µM (inactive); in the experiment on OVCAR-3, 87.9 µM (inactive). Also, the GI50 in the experiment on OVCAR-8 is 39 µM (inactive); with PC-3, > 100 µM (inactive); with SF-268 it was 19.6 µM (inactive); in the experiment on SK-MEL-5 it was > 100 µM (inactive); with SNB-75 it was 24.2 µM (inactive); in the experiment on T47D, 51.9 µM (inactive). The GI50 in the experiment on TK-10 was 52.4 µM (inactive); with UO-31 it was 27.2 µM (inactive).
Take `O=C1NC(N2CCCC(CO)C2)=N/C1=C\c1ccc(Cl)cc1` (stereo not given): the GI50 in the experiment on 786-0 was > 100 µM (inactive); in the experiment with A549, > 100 µM (inactive); in the experiment on CCRF-CEM, > 100 µM (inactive); in the experiment on DU-145 it was > 100 µM (inactive); with HCT-116 it was > 100 µM (inactive); in the experiment with HOP-92 it was 90.8 µM (inactive). Further, the GI50 in the experiment on Hs-578T was > 100 µM (inactive); with IGROV-1, 37.1 µM (inactive); in the experiment on M14 it was > 100 µM (inactive); in the experiment on MDA-MB-435, > 100 µM (inactive); in the experiment with MOLT-4 it was > 100 µM (inactive); with OVCAR-3, > 100 µM (inactive). In addition, the GI50 is > 100 µM (inactive) with OVCAR-8; > 100 µM (inactive) with PC-3; > 100 µM (inactive) with SF-268; > 100 µM (inactive) with SK-MEL-5; 51.1 µM (inactive) with SNB-75; 75.9 µM (inactive) with T47D. Further, the results for the GI50 in the experiment with TK-10 and with UO-31 were > 100 µM (inactive) and 75 µM (inactive), respectively.
`O=C(O)COc1cc(-c2ccccc2)nc2ccccc12`: the GI50 in the experiment with 786-0 is 81.8 µM (inactive); in the experiment with A549, 66.4 µM (inactive); with CCRF-CEM it was 56.2 µM (inactive); in the experiment on DU-145 it was > 100 µM (inactive); with HCT-116, 36.8 µM (inactive); with HOP-92, > 100 µM (inactive). The GI50 with Hs-578T is 62.4 µM (inactive); in the experiment on IGROV-1, 56.4 µM (inactive); with M14, 71 µM (inactive); in the experiment with MDA-MB-435, 16 µM (inactive); in the experiment on MOLT-4, 47.2 µM (inactive); with OVCAR-3, > 100 µM (inactive). Besides, the GI50 in the experiment on OVCAR-8 is > 100 µM (inactive); in the experiment on PC-3, > 100 µM (inactive); in the experiment on SF-268, > 100 µM (inactive); in the experiment with SK-MEL-5, 33.9 µM (inactive); with SNB-75, 41.5 µM (inactive); with T47D it was > 100 µM (inactive). Moreover, the GI50 in the experiment with TK-10 was > 100 µM (inactive); in the experiment on UO-31, 61.4 µM (inactive).
`CC(=O)Nc1ccc2c3c(cc(O)c2c1)N(C(=O)CCCC(=O)Nc1ccc2c4c(cc(O)c2c1)N(C(=O)OC(C)(C)C)CC4CCl)CC3CCl` (stereo not given): the GI50 is 1.23 µM (inactive) in the experiment on 786-0; 9.4 µM (inactive) in the experiment with A549; 0.108 µM (active) in the experiment with CCRF-CEM; 0.769 µM (active) with DU-145; 0.851 µM (active) in the experiment on HCT-116; 2.01 µM (inactive) with HOP-92. Also, the GI50 in the experiment with Hs-578T was 1.55 µM (inactive); in the experiment with IGROV-1, 1.05 µM (active); in the experiment with M14, 3.22 µM (inactive); with MDA-MB-435, 0.938 µM (active); in the experiment with MOLT-4, 0.0815 µM (active); in the experiment with OVCAR-3, 1.1 µM (active). The GI50 with OVCAR-8 is 1.94 µM (inactive); in the experiment with PC-3, 1.27 µM (inactive); in the experiment with SF-268, 0.195 µM (active); in the experiment on SK-MEL-5, 1.1 µM (active); in the experiment on SNB-75, 1.99 µM (inactive); with T47D, 0.418 µM (active). For the same compound, the GI50 in the experiment on TK-10 is 7.6 µM (inactive); with UO-31, > 38.5 µM (inactive).
Consider `Cc1ccc(/C=N/NS(=O)(=O)c2ccc(/C=C3\NC(=O)NC3=O)cc2)cc1`, for which the GI50 was 61.1 µM (inactive) in the experiment with 786-0; > 100 µM (inactive) in the experiment with A549; > 100 µM (inactive) with CCRF-CEM; > 100 µM (inactive) in the experiment with DU-145; > 100 µM (inactive) in the experiment on HCT-116; 53.7 µM (inactive) in the experiment on HOP-92. In addition, the GI50 was 24.2 µM (inactive) with Hs-578T; 87.9 µM (inactive) in the experiment with IGROV-1; > 100 µM (inactive) with M14; > 100 µM (inactive) in the experiment with MDA-MB-435; > 100 µM (inactive) in the experiment with MOLT-4; > 100 µM (inactive) in the experiment on OVCAR-3. Also, the GI50 in the experiment with OVCAR-8 is 37.8 µM (inactive); in the experiment with PC-3, > 100 µM (inactive); in the experiment with SF-268, 22.1 µM (inactive); in the experiment on SK-MEL-5, > 100 µM (inactive); with SNB-75, 18.2 µM (inactive); in the experiment on T47D, > 100 µM (inactive). For the same compound, the GI50 in the experiment with TK-10 and in the experiment with UO-31 was > 100 µM (inactive) each time.
`Cc1ccc(C)c2c1CC(Cc1ccccc1C(=O)O)C2=O` (stereo not given): the GI50 in the experiment on 786-0, in the experiment on A549, in the experiment with CCRF-CEM, in the experiment on DU-145, in the experiment on HCT-116 and with HOP-92 was > 100 µM (inactive) throughout. For the same compound, the GI50 in the experiment with Hs-578T, in the experiment on IGROV-1, in the experiment on M14, with MDA-MB-435, in the experiment with MOLT-4 and in the experiment with OVCAR-3 was > 100 µM (inactive) each time. Besides, the GI50 in the experiment on OVCAR-8, with PC-3, in the experiment on SF-268, in the experiment with SK-MEL-5, with SNB-75 and in the experiment with T47D was > 100 µM (inactive) in each case. Also, the GI50 in the experiment on TK-10 and in the experiment on UO-31 was > 100 µM (inactive) in each case.
